In patent EP2272817A1, “PAI-1 INHIBITOR” (Institute of Medicinal Molecular Design, Inc., priority 2008, dated 2009) one finds inhibition data, which are given here for 39 compounds.

A value given as a limit tells only on which side of the number the result lay.

For one assay, the target named is T1, recombinant human PAI-1 (Homo sapiens, UniProt P05121). As to the kind of experiment: biochemical. The following applies: read-out: Inhibition Rate of PAI Activity (%).
T1 sequence (P05121 24-402): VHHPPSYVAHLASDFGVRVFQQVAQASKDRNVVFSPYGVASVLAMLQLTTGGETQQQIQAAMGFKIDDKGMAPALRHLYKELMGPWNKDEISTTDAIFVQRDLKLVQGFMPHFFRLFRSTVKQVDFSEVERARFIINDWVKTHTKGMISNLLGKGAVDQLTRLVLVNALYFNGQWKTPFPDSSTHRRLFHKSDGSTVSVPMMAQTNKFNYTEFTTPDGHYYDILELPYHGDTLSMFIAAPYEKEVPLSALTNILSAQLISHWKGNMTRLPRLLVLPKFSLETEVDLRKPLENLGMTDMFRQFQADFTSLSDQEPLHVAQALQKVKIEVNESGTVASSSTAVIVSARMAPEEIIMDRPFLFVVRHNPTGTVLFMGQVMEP
For the compound `Cc1cc(C)cc(COc2ccc(-c3ccc(OC(F)(F)F)cc3)cc2CC(=O)O)c1` [Compound 11], the inhibition at 5 µM came to 41%, the inhibition at 10 µM worked out at 84% and the inhibition at 25 µM stood at 99%.

With `O=C(O)/C=C/c1cc(-c2ccc(OC(F)(F)F)cc2)ccc1Oc1ccc(OC(F)(F)F)cc1` [Compound 15], the inhibition at 5 µM stood at 23%, the inhibition at 10 µM turned out to be 47% and the inhibition at 25 µM was 94%.

As to `O=C(O)CCc1cc(-c2ccc(OC(F)(F)F)cc2)ccc1Oc1ccc(OC(F)(F)F)cc1` [Compound 16], the inhibition at 5 µM stood at 23%, the inhibition at 10 µM worked out at 46% and the inhibition at 25 µM was 96%.

Regarding `O=C(O)CCc1cc(-c2ccc(OC(F)(F)F)cc2)ccc1OCc1ccc(F)cc1` [Compound 20], the inhibition at 10 µM is 10% and the inhibition at 25 µM turned out to be 53%.

Consider `O=C(O)CCc1cc(-c2ccc(OC(F)(F)F)cc2)ccc1OCc1ccccc1C(F)(F)F` [Compound 21], for which the inhibition at 10 µM is 11% and the inhibition at 25 µM worked out at 70%.

For `O=C(O)CCc1cc(-c2ccc(OC(F)(F)F)cc2)ccc1OCc1ccc(-c2ccccc2)cc1` [Compound 29], the inhibition at 5 µM was 21%, the inhibition at 10 µM came out at 56% and the inhibition at 25 µM worked out at 88%.

Turning to `O=C(O)/C=C/c1cc(-c2ccc(OC(F)(F)F)cc2)ccc1OCc1cccc(C(F)(F)F)c1` [Compound 57], the inhibition at 5 µM turned out to be 24%, the inhibition at 10 µM worked out at 53% and the inhibition at 25 µM stood at 82%.

Regarding `O=C(O)CCc1cc(-c2ccc(OC(F)(F)F)cc2)ccc1OCc1cccc(C(F)(F)F)c1` [Compound 58], the inhibition at 5 µM was determined as 22%, the inhibition at 10 µM was found to be 53% and the inhibition at 25 µM was determined as 97%.

For `Cc1cc(C)cc(COc2ccc(-c3ccc(OC(F)(F)F)cc3)cc2CCC(=O)O)c1` [Compound 59], the inhibition at 5 µM amounted to 25%, the inhibition at 10 µM turned out to be 53% and the inhibition at 25 µM is 77%.

As to `Cc1ccc(COc2ccc(-c3ccc(OC(F)(F)F)cc3)cc2CCC(=O)O)cc1` [Compound 61], the inhibition at 5 µM is 21%, the inhibition at 10 µM was 48% and the inhibition at 25 µM worked out at 97%.

In the case of `O=C(O)CCc1cc(-c2ccc(OC(F)(F)F)cc2)ccc1OCc1ccc(OC(F)(F)F)cc1` [Compound 62], the inhibition at 5 µM came to 29%, the inhibition at 10 µM stood at 62% and the inhibition at 25 µM was 99%.

Still in this assay, the particulars now being: read-out: Inhibition Rate of PAI-1 Activity (%).
For the compound `CC(C)c1ccc(Oc2ccc(/C=C/C(=O)O)c(Oc3ccc(C(C)C)cc3)c2)cc1` [Compound 72], the inhibition at 5 µM is 32%, the inhibition at 10 µM is 72% and the inhibition at 25 µM stood at 98%.

On to `CC(C)c1ccc(Oc2ccc(/C=C\C(=O)O)c(Oc3ccc(C(C)C)cc3)c2)cc1` [Compound 74], for which the inhibition at 5 µM stood at 13%, the inhibition at 10 µM came out at 53% and the inhibition at 25 µM amounted to 96%.

For the compound `CC(C)(C)c1ccc(COc2cc(-c3ccc(OC(F)(F)F)cc3)ccc2/C=C/C(=O)O)cc1` [Compound 75], the inhibition at 5 µM worked out at 25%, the inhibition at 10 µM was determined as 53% and the inhibition at 25 µM stood at 91%.

Take `CC(C)(C)c1ccc(COc2cc(Oc3ccc(OC(F)(F)F)cc3)ccc2/C=C/C(=O)O)cc1` [Compound 77]: the inhibition at 5 µM came out at 27%, the inhibition at 10 µM is 51% and the inhibition at 25 µM came out at 73%.

Turning to `CC(C)(C)c1ccc(Oc2cc(-c3ccc(OC(F)(F)F)cc3)ccc2/C=C/C(=O)O)cc1` [Compound 79], the inhibition at 5 µM was found to be 39%, the inhibition at 10 µM was found to be 84% and the inhibition at 25 µM turned out to be 90%.

Consider `COc1cc(-c2ccc(OC(F)(F)F)cc2)cc(/C=C/C(=O)O)c1OCc1ccc(C(C)(C)C)cc1` [Compound 81], for which the inhibition at 5 µM stood at 28%, the inhibition at 10 µM is 63% and the inhibition at 25 µM was 70%.

For `COc1cc(-c2ccc(OC(F)(F)F)cc2)cc(CCC(=O)O)c1OCc1ccc(C(C)(C)C)cc1` [Compound 82], the inhibition at 5 µM stood at 26%, the inhibition at 10 µM stood at 59% and the inhibition at 25 µM turned out to be 98%.

On to `Cc1cc(-c2ccc(OC(F)(F)F)cc2)cc(/C=C/C(=O)O)c1OCc1ccc(C(C)(C)C)cc1` [Compound 83], for which the inhibition at 5 µM was 27%, the inhibition at 10 µM turned out to be 46% and the inhibition at 25 µM turned out to be 56%.

`Cc1cc(-c2ccc(OC(F)(F)F)cc2)cc(CCC(=O)O)c1OCc1ccc(C(C)(C)C)cc1` [Compound 84]: the inhibition at 5 µM was 28%, the inhibition at 10 µM came out at 62% and the inhibition at 25 µM came to 95%.

With `CC(C)(C)c1ccc(COc2cccc(Oc3ccc(OC(F)(F)F)cc3)c2/C=C/C(=O)O)cc1` [Compound 85], the inhibition at 5 µM stood at 40%, the inhibition at 10 µM was 61% and the inhibition at 25 µM worked out at 85%.

For the compound `CC(C)(C)c1ccc(COc2c(/C=C/C(=O)O)cccc2-c2ccc(OC(F)(F)F)cc2)cc1` [Compound 87], the inhibition at 5 µM came to 44%, the inhibition at 10 µM came to 81% and the inhibition at 25 µM was determined as 96%.

For `CC(C)(C)c1ccc(Oc2cc(Oc3ccc(OC(F)(F)F)cc3)ccc2/C=C/C(=O)O)cc1` [Compound 89], the inhibition at 5 µM was determined as 46%, the inhibition at 10 µM stood at 87% and the inhibition at 25 µM is 95%.

As for `CC(C)(C)c1ccc(COc2c(Cl)cc(-c3ccc(OC(F)(F)F)cc3)cc2/C=C/C(=O)O)cc1` [Compound 91], the inhibition at 5 µM amounted to 30%, the inhibition at 10 µM was 67% and the inhibition at 25 µM came to 96%.

In the case of `CC(C)(C)c1ccc(COc2c(Cl)cc(-c3ccc(OC(F)(F)F)cc3)cc2CCC(=O)O)cc1` [Compound 92], the inhibition at 5 µM was 25%, the inhibition at 10 µM came to 63% and the inhibition at 25 µM turned out to be 97%.

Regarding `CC(C)(C)c1ccc(Oc2cccc(-c3ccc(OC(F)(F)F)cc3)c2/C=C/C(=O)O)cc1` [Compound 93], the inhibition at 5 µM is 51%, the inhibition at 10 µM amounted to 87% and the inhibition at 25 µM is 94%.

With `CC(C)(C)c1ccc(COc2ccc(Oc3ccc(OC(F)(F)F)cc3)cc2/C=C/C(=O)O)cc1` [Compound 95], the inhibition at 5 µM came to 28%, the inhibition at 10 µM turned out to be 77% and the inhibition at 25 µM worked out at 96%.

For the compound `O=C(O)/C=C/c1c(Oc2ccc(OC(F)(F)F)cc2)cccc1Oc1ccc(OC(F)(F)F)cc1` [Compound 97], the inhibition at 5 µM worked out at 30%, the inhibition at 10 µM came out at 40% and the inhibition at 25 µM was 53%.

With `CC(C)(C)c1ccc(Oc2ccc(Oc3ccc(OC(F)(F)F)cc3)cc2/C=C/C(=O)O)cc1` [Compound 99], the inhibition at 5 µM was determined as 31%, the inhibition at 10 µM is 66% and the inhibition at 25 µM turned out to be 99%.

In the next assay the target is T1, recombinant human PAI-1. As to the kind of experiment: Test Example 2: Human PAI-1 Inhibitory Activity (pH 7.4 HEPES buffer, 10 minutes incubation with two-chain tPA). Type of assay: biochemical. The arrangement: purchased Molecular Innovations, Inc. As to conditions: read-out: Inhibition Rate of PAI-1 Activity (%). As to the method: 0.1 M HEPES, 0.1 M NaCl. 1 mM EDTA. 0.1 % Polyethylene glycol 8,000 (Hampton Research Corporation),
2 mM Dimethyldecylphoshine oxide [Apo-10] (Fluka Corporation)
`CCCCCOc1ccc(-c2cc(C)cc(C)c2)cc1N(CCCCc1ccccc1)C(=O)C(=O)O` [Compound 672]: the inhibition at 0.1 µM came to 3%, the inhibition at 0.3 µM is 15%, the inhibition at 1 µM was determined as 92% and the inhibition at 3 µM was > 99%.

With `O=C(O)C(=O)N(CCCCc1ccccc1)c1ccc(N2CCCC2)c(-c2ccc(OC(F)(F)F)cc2)c1` [Compound 673], the inhibition at 0.1 µM amounted to 0%, the inhibition at 0.3 µM came out at 15%, the inhibition at 1 µM is > 99% and the inhibition at 3 µM was > 99%.

As for `O=C(O)C(=O)N(CCCCc1ccccc1)c1ccc(N2CCCCCC2)c(-c2ccc(OC(F)(F)F)cc2)c1` [Compound 674], the inhibition at 0.1 µM amounted to 5%, the inhibition at 0.3 µM was found to be 55%, the inhibition at 1 µM is > 99% and the inhibition at 3 µM came out at 98%.

For the compound `O=C(O)C(=O)N(CCCCc1ccccc1)c1ccc(N2CCSCC2)c(-c2ccc(OC(F)(F)F)cc2)c1` [Compound 675], the inhibition at 0.1 µM turned out to be 10%, the inhibition at 0.3 µM amounted to 14%, the inhibition at 1 µM was determined as 95% and the inhibition at 3 µM was > 99%.

As for `O=C(O)C(=O)N(CCCCc1ccccc1)c1cc(-c2ccc(OC(F)(F)F)cc2)ccc1OCCCCCO` [Compound 676], the inhibition at 0.1 µM was 7%, the inhibition at 0.3 µM worked out at 4%, the inhibition at 1 µM amounted to 60% and the inhibition at 3 µM was > 99%.

For `CCCCCOc1ccc(-c2ccc(C)cc2)cc1N(CCCCc1ccccc1)C(=O)C(=O)O` [Compound 677], the inhibition at 0.1 µM came out at 19%, the inhibition at 0.3 µM turned out to be 17%, the inhibition at 1 µM amounted to 93% and the inhibition at 3 µM worked out at 96%.

With `CCCCCOc1ccc(-c2ccc(C(C)C)cc2)cc1N(CCCCc1ccccc1)C(=O)C(=O)O` [Compound 678], the inhibition at 0.1 µM stood at 19%, the inhibition at 0.3 µM was found to be 33%, the inhibition at 1 µM is 97% and the inhibition at 3 µM amounted to 94%.

As to `CC(C)(C)[C@H]1CC[C@H](CN(C(=O)C(=O)O)c2ccc(-c3ccc(OC(F)(F)F)cc3)cc2)CC1` [Compound 679], the inhibition at 0.1 µM came to 6%, the inhibition at 0.3 µM was found to be 9%, the inhibition at 1 µM was 84% and the inhibition at 3 µM was > 99%.

As to `CC(C)(C)[C@H]1CC[C@@H](CN(C(=O)C(=O)O)c2ccc(-c3ccc(OC(F)(F)F)cc3)cc2)CC1` [Compound 680], the inhibition at 0.1 µM came to 7%, the inhibition at 0.3 µM was 9%, the inhibition at 1 µM came out at 77% and the inhibition at 3 µM was > 99%.

In the case of `CCCCCOc1ccc(-c2ccc(OC(F)(F)F)cc2)cc1N(CC(=O)O)C(=O)CCCc1ccccc1` [Compound 682], the inhibition at 0.1 µM was determined as 2%, the inhibition at 0.3 µM is 5%, the inhibition at 1 µM was 32% and the inhibition at 3 µM amounted to 98%.
